Counter-ions that a name gives are not always drawn. Like-named read-outs stand apart in the source and are kept apart here.
How the values were obtained:
OTC = OTC expression modulated by compounds (OTC/Geo Mean of HKs, DMSO = 1); assay type: cell-based, human; settings: OTC expression; compound at 10 uM final concentration
Method: Analysis of the fold changes in expression as measured by qRT-PCR were performed using the technique below. The control was DMSO, and the treatment was the selected compound (CPD). The internal control was GAPDH or B-Actin, and the gene of interest is the target. First, the averages of the 4 conditions were calculated for normalization: DMSO:GAPDH, DMSO:Target, CPD: GAPDH, and CPD:Target. Next, the ΔCT of both control and treatment were calculated to normalize to internal control (GAPDH) using (DMSO:Target)−(DMSO:GAPDH)=ΔCT control and (CPD:Target)−(CPD: GAPDH)=ΔCT experimental. Then, the ΔΔCT was calculated by ΔCT experimental−ΔCT control.

[1] = test system: multiple urea cycle-related genes; test: RNA-seq, compounds that modulate multiple urea cycle-related genes; assay type: cell-based; settings: primary human hepatocytes; for Up-regulated Genes: urea cycle-related genes significantly increased by the compound
CPS1 = test: RNA-seq, CPS1 expression in compound-treated primary human hepatocytes; assay type: cell-based
ARG1 = test: RNA-seq, ARG1 expression in compound-treated primary human hepatocytes; assay type: cell-based; settings: RNA-seq, primary human hepatocytes, compounds that significantly increase ARG1 expression
[2] = RNA-seq, primary human hepatocytes, compounds that significantly increase NAGS expression

O=C(NCCCNc1nc(Nc2cccc(NC(=O)N3CCCC3)c2)ncc1I)c1cccs1 [BX795]
Max Value (OTC/Geo Mean of HKs; DMSO = 1) (OTC): 2.57

Cc1ccc(Nc2nccc(N(C)c3ccc4c(C)n(C)nc4c3)n2)cc1S(N)(=O)=O [Pazopanib]
Max Value (OTC/Geo Mean of HKs; DMSO = 1) (OTC): 1.48

Cc1cc(C)c(/C=C2\C(=O)Nc3ccccc32)[nH]1 [Semaxanib]
NAGS expression, Fold change (Log 2) vs untreated (NAGS; [2]): 2 Log 2

Cc1ccc(F)c(NC(=O)Nc2ccc(-c3cccc4[nH]nc(N)c34)cc2)c1 [Linifanib (ABT-869), Linifanib]
Max Value (OTC/Geo Mean of HKs; DMSO = 1) (OTC): 2.87

C1=C/COCc2cc(ccc2OCCN2CCCC2)Nc2nccc(n2)-c2cccc(c2)COC/1 [Pacritinib (SB1518), Pacritinib]
number of urea cycle genes whose expression was significantly up-regulated [1]: five
Up-regulated Genes [1]: CPS1, ASS1, ASL, OTC, ARG1

CC1(C)CC(=O)c2c(C(F)(F)F)nn(-c3ccc(C(N)=O)c(N[C@H]4CC[C@H](OC(=O)CN)CC4)c3)c2C1 [PF-04929113 (SNX-5422)]
Max Value (OTC/Geo Mean of HKs; DMSO = 1) (OTC): 1.73

CNC(=O)c1ccc(C)c(-n2c(C)cc(OCc3ccc(F)cc3F)c(Br)c2=O)c1 [PH-797804]
Max Value (OTC/Geo Mean of HKs; DMSO = 1) (OTC): 1.53

C[C@]12C=CC(=O)C=C1CC[C@@H]1[C@@H]2C(=O)C[C@@]2(C)[C@H]1CC[C@]2(O)C(=O)CO [prednisone]
number of urea cycle genes whose expression was significantly up-regulated [1]: three
Up-regulated Genes [1]: CPS1, NAGS, ARG1
NAGS expression, Fold change (Log 2) vs untreated (NAGS; [2]): 1 Log 2
Fold change (Log 2) vs untreated (CPS1): 2.17 Log 2
ARG1 expression, Fold change (Log 2) vs untreated (ARG1): 1.59 Log 2

CC1(COc2ccc3c(c2)ncn3-c2ccc3cccc(N4CCC(N)CC4)c3n2)COC1 [Crenolanib]
number of urea cycle genes whose expression was significantly up-regulated [1]: four
Up-regulated Genes [1]: ASS1, ASL, OTC, ARG1
Max Value (OTC/Geo Mean of HKs; DMSO = 1) (OTC): 2.79

CS[C@H]1SC[C@H]2C(=O)N(C)[C@@H](C(C)C)C(=O)OC[C@@H](NC(=O)c3cnc4ccccc4n3)C(=O)N[C@@H](C)C(=O)N(C)[C@@H]1C(=O)N(C)[C@@H](C(C)C)C(=O)OC[C@@H](NC(=O)c1cnc3ccccc3n1)C(=O)N[C@@H](C)C(=O)N2C [Echinomycin]
number of urea cycle genes whose expression was significantly up-regulated [1]: six

C[C@@H]1CCN(C(=O)CC#N)C[C@@H]1N(C)c1ncnc2[nH]ccc12 [Tofacitinib citrate]
Max Value (OTC/Geo Mean of HKs; DMSO = 1) (OTC): 1.6

COc1cc2c(cc1OC)CN(C(=O)/C=C/c1c(-c3ccccc3)n(C)c3ncccc13)CC2 [SIS3]
NAGS expression, Fold change (Log 2) vs untreated (NAGS): 0.64 Log 2
Max Value (OTC/Geo Mean of HKs; DMSO = 1) (OTC): 1.46

N#CCNC(=O)c1ccc(-c2ccnc(Nc3ccc(N4CCOCC4)cc3)n2)cc1 [Momelotinib]
number of urea cycle genes whose expression was significantly up-regulated [1]: three
Up-regulated Genes [1]: CPS1, OTC, ARG1
Max Value (OTC/Geo Mean of HKs; DMSO = 1) (OTC): 3.52

COc1cc(Nc2ncc(F)c(Nc3ccc4c(n3)N(COP(=O)(O)O)C(=O)C(C)(C)O4)n2)cc(OC)c1OC [R788 (fostamatinib disodium hexahydrate), fostamatinib disodium hexahydrate]
number of urea cycle genes whose expression was significantly up-regulated [1]: three
Up-regulated Genes [1]: CPS1, ARG1, SLC25A15

CCCC(=O)O[C@@H]1[C@@H](C)[C@@]2(O)[C@@H](C=C(CO)C[C@]3(O)C(=O)C(C)=C[C@@H]23)[C@@H]2C(C)(C)[C@]12OC(=O)CCC [Phorbol 12,13-dibutyrate]
NAGS expression, Fold change (Log 2) vs untreated (NAGS; [2]): 0.62 Log 2

C=CCNC1=C2C[C@@H](C)C[C@H](OC)[C@H](O)[C@@H](C)/C=C(\C)[C@H](OC(N)=O)[C@@H](OC)/C=C\C=C(/C)C(=O)NC(=CC1=O)C2=O [17-AAG (Tanespimycin), Tanespimycin]
Max Value (OTC/Geo Mean of HKs; DMSO = 1) (OTC): 1.69

C=C1/C(=C\C=C2/CCC[C@]3(C)[C@@H]([C@H](C)CCCC(C)(C)O)CC[C@@H]23)C[C@@H](O)C[C@@H]1O [Calcitriol]
NAGS expression, Fold change (Log 2) vs untreated (NAGS; [2]): 1.2 Log 2

NS(=O)(=O)C#Cc1ccccc1 [Pifithrin-u]
ARG1 expression, Fold change (Log 2) vs untreated (ARG1): 1.87 Log 2

C=CC(=O)Nc1cccc(Nc2nc(Nc3ccc(N4CCN(C(C)=O)CC4)cc3OC)ncc2C(F)(F)F)c1 [CO-1686 (Rociletinib), Rociletinib]
NAGS expression, Fold change (Log 2) vs untreated (NAGS): 1.05 Log 2
Fold change (Log 2) vs untreated (CPS1): 0.89 Log 2

Cc1cc(Nc2cc(CN3CCOCC3)c3nc(C)c(Cc4ccc(Cl)cc4F)n3n2)n[nH]1 [LY2784544]
Max Value (OTC/Geo Mean of HKs; DMSO = 1) (OTC): 2.78

CCn1c(=O)c(-c2ccc(-c3cncs3)cc2Cl)cc2cnc(Nc3ccc(N4CCN(C)CC4)cc3)nc21 [FRAX597]
number of urea cycle genes whose expression was significantly up-regulated [1]: five

O=C(NCCCn1ccnc1)c1cc(-c2ccco2)on1 [SKL2001]
NAGS expression, Fold change (Log 2) vs untreated (NAGS): 0.95 Log 2

Cl.Cn1c(=O)c(Oc2ccc(F)cc2F)cc2cnc(NC3CCOCC3)nc21 [R1487 Hydrochloride]
Max Value (OTC/Geo Mean of HKs; DMSO = 1) (OTC): 1.64

Cc1ccc(-n2nc(C(C)(C)C)cc2NC(=O)Nc2ccc(OCCN3CCOCC3)c3ccccc23)cc1 [BIRB 796, Doramapimod]
Max Value (OTC/Geo Mean of HKs; DMSO = 1) (OTC): 2.61

B1: GDF10 (BMP3b): member of the BMP family and the TGF-B superfamily (protein, UniProt P55107 369-478, looked up)
Growth/differentiation factor …: QWDEPRVCSRRYLKVDFADIGWNEWIISPKSFDAYYCAGACEFPMPKIVRPSNHATIQSIVRAVGIIPGIPEPCCVPDKMNSLGVLFLDENRNVVLKVYPNMSVDTCACR
Fold change (Log 2) vs untreated (CPS1): 1.66 Log 2
ARG1 expression, Fold change (Log 2) vs untreated (ARG1): 0.97 Log 2
